Assay results as given in patent publication US20110223597A1 (priority 2010, published 2011).

How the values were obtained:
UGT1A4 = target: T1, UGT1A4 (Homo sapiens, UniProt P22310); assay: in vitro; settings: homogenates from UGT1A4-over-expressing cells, pH 7.5, probe OLZ (olanzapine), 25 μM
T1 sequence (P22310 29-534): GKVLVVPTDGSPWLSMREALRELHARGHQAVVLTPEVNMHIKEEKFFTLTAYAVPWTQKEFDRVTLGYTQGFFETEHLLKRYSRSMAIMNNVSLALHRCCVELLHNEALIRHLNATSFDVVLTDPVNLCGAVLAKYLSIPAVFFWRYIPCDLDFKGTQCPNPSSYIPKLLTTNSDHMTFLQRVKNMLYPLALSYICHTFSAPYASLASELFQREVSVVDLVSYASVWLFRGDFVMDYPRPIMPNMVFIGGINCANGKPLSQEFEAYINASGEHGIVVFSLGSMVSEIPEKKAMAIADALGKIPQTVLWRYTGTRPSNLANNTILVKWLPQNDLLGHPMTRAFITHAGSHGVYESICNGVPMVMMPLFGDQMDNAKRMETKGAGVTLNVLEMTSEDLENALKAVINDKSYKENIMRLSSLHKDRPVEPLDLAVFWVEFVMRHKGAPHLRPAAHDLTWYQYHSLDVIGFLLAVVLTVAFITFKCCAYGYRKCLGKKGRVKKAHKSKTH
Experimental: Glucuronidation assays were performed in 50 mmol/L Tris buffer (pH 7.5), 10 mmol/L MgCl2, 4 mmol/L UDP-glucuronic acid (UDPGA), and 7.8 μmol/L to 4 mmol/L of substrate at 37° C. in a water bath for 2 h. […] Reactions were terminated by the addition of the same volume of cold acetonitrile as the initial reaction volume. Reactions were centrifuged at 13,000 g for 10 min at 4° C. and supernatants were collected. […] Elution consisted of a gradient elution starting with 87.5% buffer B (100% acetonitrile) and 17.5% buffer A [5 mmol/L ammonium acetate (pH 6.0)] for 5 min, a linear gradient to 90% buffer B over 1 min and held for 2 min, then a linear gradient back to initial conditions and held for 2 min for a total run time of 10 min. The flow rate was maintained at 0.5 mL/min. […] 1, 1997; 25(0:81-93, and by mass spectrometry as described herein. As controls, glucuronidation assays were performed using HLM as a positive control for glucuronidation activity and untransfected HEK293 cell homogenate protein as a negative control for glucuronidation activity. Four independent experiments were performed for kinetic analysis of UGT-over-expressing cell homogenates, with all assays within each experiment performed in duplicate; two independent experiments were performed for rate determination assays and three for kinetic analysis for HLM specimens.

[1] = tested on: UGT1A4 (overall OLZ glucuronidation); assay: in vitro; settings: human, pH 7.5
[2] = tested on: UGTs 1A1, 1A3, 1A6, 1A7, 1A8, 1A9, 1A10, 2B4, 2B7, 2B11, 2B15 or 2B17; assay: Screening of OLZ glucuronidation activity by homogenates of HEK293 cells over-expressing other wild-type UGTs; format: in vitro ADME, human; settings: up to 250 μg of UGT-over-expressing cell homogenate

Row | inhibition at 2 h, 2000 μM (UGT1A4) [%] | inhibition at 2 h, 2000 μM [1] [%] | SMILES | glucuronidation activity against OLZ in UGT screening [2]
1 | 41 | 12 ± 3.4 | Nc1nnc(-c2cccc(Cl)c2Cl)c(N)n1 [LTG, lamotrigine] | 
2 |  |  | Cc1cc2c(s1)Nc1ccccc1N=C2N1CCN(C)CC1 [OLZ, Olanzapine] | None of the other UGTs screened
